As a reminder, the Ki is the dissociation constant of the complex between target and ligand, obtained from inhibition or displacement.

The results in this text go back to ChEMBL document CHEMBL1201862, “PubChem BioAssay data set” (2004).

What all share (assay type): functional
Assay [1] has as its target Dual specificity protein kinase CLK2 (Homo sapiens, UniProt P49760).
The target of assay [2] is Tyrosine-protein kinase JAK2 (Homo sapiens, UniProt O60674).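 Further: JAK2 tested as one member of a kinase panel.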
The target of assay [3] is ALK tyrosine kinase receptor (Homo sapiens, UniProt Q9UM73).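 Further: ALK tested as one member of a kinase panel screen.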
ALK tyrosine kinase receptor, sequence (Q9UM73 whole entry): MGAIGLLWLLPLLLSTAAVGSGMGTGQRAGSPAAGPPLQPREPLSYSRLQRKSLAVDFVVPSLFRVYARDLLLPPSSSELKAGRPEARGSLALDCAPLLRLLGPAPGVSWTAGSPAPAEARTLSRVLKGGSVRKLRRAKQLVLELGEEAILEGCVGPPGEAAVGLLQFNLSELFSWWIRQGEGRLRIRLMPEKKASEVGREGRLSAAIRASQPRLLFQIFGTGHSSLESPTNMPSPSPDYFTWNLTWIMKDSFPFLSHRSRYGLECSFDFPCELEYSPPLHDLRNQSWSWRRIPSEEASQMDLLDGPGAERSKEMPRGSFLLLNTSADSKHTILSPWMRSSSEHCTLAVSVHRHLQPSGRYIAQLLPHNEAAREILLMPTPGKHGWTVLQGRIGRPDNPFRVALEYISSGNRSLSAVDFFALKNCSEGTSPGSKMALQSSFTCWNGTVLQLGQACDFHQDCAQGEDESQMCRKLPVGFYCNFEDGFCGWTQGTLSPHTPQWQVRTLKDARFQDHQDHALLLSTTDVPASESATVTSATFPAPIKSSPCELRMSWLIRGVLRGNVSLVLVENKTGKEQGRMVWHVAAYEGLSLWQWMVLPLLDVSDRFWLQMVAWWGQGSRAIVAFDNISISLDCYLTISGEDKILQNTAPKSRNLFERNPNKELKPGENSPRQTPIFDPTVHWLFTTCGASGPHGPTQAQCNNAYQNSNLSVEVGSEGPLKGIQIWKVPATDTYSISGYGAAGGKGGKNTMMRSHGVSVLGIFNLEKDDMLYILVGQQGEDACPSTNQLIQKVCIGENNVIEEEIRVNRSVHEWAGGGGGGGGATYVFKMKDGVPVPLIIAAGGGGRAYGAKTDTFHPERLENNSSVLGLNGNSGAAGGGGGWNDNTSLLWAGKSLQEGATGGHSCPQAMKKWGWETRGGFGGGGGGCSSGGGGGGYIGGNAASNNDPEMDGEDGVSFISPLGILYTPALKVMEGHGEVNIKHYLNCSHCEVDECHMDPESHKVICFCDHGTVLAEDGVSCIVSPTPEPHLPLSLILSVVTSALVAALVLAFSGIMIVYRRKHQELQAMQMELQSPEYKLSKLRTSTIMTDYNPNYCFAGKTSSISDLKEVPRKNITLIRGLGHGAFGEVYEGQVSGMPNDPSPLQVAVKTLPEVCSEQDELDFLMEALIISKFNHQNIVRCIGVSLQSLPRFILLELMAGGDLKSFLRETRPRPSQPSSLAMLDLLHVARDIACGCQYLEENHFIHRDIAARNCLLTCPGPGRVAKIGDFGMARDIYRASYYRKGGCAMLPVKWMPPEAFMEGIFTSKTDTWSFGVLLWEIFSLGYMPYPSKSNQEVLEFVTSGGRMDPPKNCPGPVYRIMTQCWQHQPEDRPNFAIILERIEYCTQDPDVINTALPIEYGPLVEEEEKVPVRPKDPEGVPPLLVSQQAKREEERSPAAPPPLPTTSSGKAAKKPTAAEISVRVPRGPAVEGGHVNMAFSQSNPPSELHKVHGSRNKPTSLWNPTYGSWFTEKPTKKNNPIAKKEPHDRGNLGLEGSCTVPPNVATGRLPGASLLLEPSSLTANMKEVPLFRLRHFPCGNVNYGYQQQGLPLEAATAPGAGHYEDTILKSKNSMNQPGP
Assay [4] has as its target T1, Tyrosine-protein kinase receptor TYRO3 (Homo sapiens, UniProt Q06418).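 Further: TYRO3 value obtained as one member of a kinome-wide profiling panel.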
T1 sequence (Q06418 whole entry): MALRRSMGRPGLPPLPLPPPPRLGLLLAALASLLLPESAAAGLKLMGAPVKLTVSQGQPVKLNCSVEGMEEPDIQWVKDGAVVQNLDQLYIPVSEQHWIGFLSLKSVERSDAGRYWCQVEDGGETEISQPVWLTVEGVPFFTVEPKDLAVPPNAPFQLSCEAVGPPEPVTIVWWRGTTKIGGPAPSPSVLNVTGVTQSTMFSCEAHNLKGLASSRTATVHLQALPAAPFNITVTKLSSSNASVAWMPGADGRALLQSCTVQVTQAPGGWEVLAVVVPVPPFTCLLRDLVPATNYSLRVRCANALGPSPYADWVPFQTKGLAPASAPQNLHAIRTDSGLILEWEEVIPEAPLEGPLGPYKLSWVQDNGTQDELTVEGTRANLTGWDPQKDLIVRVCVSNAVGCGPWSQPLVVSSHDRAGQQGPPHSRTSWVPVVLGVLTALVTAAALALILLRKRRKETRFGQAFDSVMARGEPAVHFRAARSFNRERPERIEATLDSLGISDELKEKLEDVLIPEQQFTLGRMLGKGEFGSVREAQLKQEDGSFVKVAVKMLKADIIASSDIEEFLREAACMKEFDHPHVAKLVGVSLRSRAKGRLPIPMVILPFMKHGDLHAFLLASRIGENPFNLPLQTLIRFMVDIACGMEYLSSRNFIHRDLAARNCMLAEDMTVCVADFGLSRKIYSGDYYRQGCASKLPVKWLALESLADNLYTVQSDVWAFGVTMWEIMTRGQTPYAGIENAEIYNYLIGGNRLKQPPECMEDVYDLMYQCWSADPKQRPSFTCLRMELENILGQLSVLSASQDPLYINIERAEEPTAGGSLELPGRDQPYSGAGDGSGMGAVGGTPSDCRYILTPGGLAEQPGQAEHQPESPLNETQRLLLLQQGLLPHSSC

The target in assay [5] is Death-associated protein kinase 3 (Homo sapiens, UniProt O43293).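 Further: measured as one member of a kinome-wide profiling panel.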
Death-associated protein kinase 3, sequence (O43293 whole entry): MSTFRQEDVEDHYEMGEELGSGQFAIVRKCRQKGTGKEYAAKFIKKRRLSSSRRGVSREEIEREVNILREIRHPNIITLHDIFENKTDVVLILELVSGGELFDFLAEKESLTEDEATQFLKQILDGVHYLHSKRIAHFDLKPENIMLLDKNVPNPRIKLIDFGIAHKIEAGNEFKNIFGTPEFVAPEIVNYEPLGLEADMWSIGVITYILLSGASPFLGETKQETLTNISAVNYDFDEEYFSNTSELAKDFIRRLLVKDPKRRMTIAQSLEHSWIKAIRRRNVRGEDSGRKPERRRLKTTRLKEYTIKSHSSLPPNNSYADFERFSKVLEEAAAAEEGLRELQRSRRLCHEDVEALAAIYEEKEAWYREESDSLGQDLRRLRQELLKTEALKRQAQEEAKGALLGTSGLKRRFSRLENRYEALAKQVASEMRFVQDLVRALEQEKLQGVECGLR
Assay [6] deals with Mitogen-activated protein kinase 8 (Homo sapiens, UniProt P45983).
The target in assay [7] is Fibroblast growth factor receptor 1 (Homo sapiens, UniProt P11362).
Fibroblast growth factor receptor 1, sequence (P11362 whole entry): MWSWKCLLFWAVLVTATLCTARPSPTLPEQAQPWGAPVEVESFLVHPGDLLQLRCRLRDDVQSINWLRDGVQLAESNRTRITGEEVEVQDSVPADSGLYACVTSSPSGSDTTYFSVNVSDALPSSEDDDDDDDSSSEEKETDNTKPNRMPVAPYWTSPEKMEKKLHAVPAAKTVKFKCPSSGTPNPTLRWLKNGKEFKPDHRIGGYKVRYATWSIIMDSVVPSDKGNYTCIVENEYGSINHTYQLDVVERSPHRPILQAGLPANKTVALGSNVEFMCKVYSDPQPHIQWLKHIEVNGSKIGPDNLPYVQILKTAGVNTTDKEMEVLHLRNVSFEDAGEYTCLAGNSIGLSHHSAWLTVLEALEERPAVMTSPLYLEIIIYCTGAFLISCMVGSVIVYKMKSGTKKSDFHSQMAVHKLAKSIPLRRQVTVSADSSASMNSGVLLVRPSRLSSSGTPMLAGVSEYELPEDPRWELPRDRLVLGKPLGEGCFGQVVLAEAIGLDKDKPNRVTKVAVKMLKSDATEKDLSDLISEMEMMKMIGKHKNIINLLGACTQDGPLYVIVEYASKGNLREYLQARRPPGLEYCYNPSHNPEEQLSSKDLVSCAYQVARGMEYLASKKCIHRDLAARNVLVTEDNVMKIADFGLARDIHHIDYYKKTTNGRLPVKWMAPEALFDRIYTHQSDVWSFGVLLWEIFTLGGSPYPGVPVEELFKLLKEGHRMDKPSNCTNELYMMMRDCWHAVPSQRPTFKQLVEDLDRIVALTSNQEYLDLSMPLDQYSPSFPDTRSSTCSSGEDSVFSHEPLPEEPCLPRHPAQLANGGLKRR
Assay [8] has as its target Glycogen synthase kinase-3 alpha (Homo sapiens, UniProt P49840).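 Further: GSK3A result taken from a broad kinome-wide kinase panel.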
Assay [9] addresses Vascular endothelial growth factor receptor 2 (Homo sapiens, UniProt P35968).
Assay [10] deals with T2, cAMP-dependent protein kinase catalytic subunit PRKX (Homo sapiens, UniProt P51817).
T2 sequence (P51817 whole entry): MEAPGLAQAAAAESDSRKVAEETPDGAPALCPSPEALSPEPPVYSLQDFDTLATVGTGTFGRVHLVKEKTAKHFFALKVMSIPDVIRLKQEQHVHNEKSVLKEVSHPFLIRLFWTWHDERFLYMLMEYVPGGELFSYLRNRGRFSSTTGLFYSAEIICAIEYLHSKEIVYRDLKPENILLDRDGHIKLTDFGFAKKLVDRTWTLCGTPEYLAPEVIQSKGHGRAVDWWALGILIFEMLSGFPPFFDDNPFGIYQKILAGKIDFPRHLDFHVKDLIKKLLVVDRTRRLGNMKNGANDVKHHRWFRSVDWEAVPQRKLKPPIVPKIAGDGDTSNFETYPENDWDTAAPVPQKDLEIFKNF

The target in a further assay is Aurora kinase B (Homo sapiens, UniProt Q96GD4).
Aurora kinase B, sequence (Q96GD4 whole entry): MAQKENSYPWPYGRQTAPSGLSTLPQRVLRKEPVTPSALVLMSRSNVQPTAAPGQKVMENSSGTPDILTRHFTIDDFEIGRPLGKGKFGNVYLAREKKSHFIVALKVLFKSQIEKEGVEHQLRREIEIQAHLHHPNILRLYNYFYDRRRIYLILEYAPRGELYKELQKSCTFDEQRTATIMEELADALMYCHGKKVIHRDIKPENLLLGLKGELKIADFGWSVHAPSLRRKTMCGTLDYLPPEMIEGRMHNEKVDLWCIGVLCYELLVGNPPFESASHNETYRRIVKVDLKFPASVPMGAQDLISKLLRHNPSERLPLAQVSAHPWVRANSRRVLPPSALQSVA
Assay [11] concerns the target Vascular endothelial growth factor receptor 1 (Homo sapiens, UniProt P17948).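 Further: measured within a kinome-wide profiling panel, FLT1 as the panel member.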
Assay [12] concerns the target cAMP-dependent protein kinase catalytic subunit alpha (Homo sapiens, UniProt P17612).
The target in assay [13] is Mitogen-activated protein kinase kinase kinase kinase 4 (Homo sapiens, UniProt O95819).
The target in assay [14] is Macrophage colony-stimulating factor 1 receptor (Homo sapiens, UniProt P07333).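 Further: value comes from the Navigating the Kinome screening panel, CSF1R member.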
The target in assay [15] is Dual specificity tyrosine-phosphorylation-regulated kinase 1A (Homo sapiens, UniProt Q13627).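 Further: measured against DYRK1A as one member of a broad kinome profiling panel.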
Assay [16] concerns the target Platelet-derived growth factor receptor alpha (Homo sapiens, UniProt P16234). Nature of the assay: Navigating the Kinome. Panel member name: PDGFRA.
Assay [17] deals with Cyclin-dependent kinase 8 (Homo sapiens, UniProt P49336). Nature of the assay: Navigating the Kinome. Panel member name: CDK8.
The target in assay [18] is Calcium/calmodulin-dependent protein kinase type II subunit alpha (Homo sapiens, UniProt Q9UQM7). Nature of the assay: Navigating the Kinome. Panel member name: CAMK2A.
Assay [19] has as its target Leukocyte tyrosine kinase receptor (Homo sapiens, UniProt P29376). The assay is described as follows: Navigating the Kinome. Panel member name: LTK.

Activity calls are given as the source filed them.

Dual specificity protein kinase CLK2, sequence (P49760 whole entry): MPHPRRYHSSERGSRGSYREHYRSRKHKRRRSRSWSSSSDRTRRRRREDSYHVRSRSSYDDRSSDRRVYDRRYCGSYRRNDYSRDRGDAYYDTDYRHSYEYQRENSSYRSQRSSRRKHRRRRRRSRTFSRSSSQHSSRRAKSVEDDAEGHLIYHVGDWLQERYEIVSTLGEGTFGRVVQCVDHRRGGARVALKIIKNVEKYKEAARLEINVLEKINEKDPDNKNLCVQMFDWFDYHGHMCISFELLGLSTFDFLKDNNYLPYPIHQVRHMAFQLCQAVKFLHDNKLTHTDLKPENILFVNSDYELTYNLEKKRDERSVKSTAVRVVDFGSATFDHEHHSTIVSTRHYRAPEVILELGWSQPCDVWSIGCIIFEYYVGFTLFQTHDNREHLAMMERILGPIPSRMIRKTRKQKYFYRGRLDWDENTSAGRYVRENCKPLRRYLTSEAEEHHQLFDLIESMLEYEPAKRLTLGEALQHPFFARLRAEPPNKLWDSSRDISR
Vascular endothelial growth factor receptor 2, sequence (P35968 whole entry): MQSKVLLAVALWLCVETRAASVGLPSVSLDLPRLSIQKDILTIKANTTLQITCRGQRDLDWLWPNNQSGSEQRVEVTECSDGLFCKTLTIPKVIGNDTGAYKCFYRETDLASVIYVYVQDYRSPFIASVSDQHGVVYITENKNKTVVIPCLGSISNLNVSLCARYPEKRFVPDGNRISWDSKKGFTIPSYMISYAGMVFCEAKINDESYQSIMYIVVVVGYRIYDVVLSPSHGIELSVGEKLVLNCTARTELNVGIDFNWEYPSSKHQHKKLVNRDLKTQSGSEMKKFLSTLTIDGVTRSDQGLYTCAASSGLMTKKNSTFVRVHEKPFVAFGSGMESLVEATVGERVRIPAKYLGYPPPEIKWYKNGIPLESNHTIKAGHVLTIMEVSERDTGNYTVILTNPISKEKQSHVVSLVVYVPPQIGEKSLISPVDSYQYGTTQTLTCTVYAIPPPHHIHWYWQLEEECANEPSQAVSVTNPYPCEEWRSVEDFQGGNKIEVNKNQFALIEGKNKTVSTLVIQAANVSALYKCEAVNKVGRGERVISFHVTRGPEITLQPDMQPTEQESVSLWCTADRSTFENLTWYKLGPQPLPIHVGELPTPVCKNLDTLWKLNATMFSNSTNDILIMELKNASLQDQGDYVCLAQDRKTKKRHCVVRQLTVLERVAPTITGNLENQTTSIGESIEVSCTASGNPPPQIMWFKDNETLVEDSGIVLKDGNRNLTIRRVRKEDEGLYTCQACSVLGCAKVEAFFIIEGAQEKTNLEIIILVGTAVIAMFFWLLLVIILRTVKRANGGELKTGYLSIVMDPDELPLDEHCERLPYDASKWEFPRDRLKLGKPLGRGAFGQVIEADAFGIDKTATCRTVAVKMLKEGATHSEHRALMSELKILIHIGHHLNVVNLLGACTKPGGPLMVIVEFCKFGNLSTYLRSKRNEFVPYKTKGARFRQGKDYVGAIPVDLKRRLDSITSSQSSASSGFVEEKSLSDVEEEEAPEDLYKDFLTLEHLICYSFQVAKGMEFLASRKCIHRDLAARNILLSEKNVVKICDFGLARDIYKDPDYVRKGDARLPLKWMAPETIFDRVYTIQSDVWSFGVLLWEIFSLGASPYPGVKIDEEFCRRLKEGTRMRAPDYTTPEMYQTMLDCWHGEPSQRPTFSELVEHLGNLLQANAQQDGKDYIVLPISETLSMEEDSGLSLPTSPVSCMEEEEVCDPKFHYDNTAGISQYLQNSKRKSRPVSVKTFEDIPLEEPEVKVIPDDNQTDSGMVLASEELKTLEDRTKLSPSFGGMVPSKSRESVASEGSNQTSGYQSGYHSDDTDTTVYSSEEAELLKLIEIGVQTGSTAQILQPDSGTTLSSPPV

On to `NC1CCC(Nc2nccc(-c3c[nH]c4ncccc34)n2)CC1` (stereo not given), for which the Ki is 0.00501 µM (active) in [1]; 0.251 µM (active) in assay [2]; > 1.26 µM (inactive) in assay [3]; > 2 µM (inactive) in assay [4]; 0.158 µM (active) in [5]; 0.1 µM (active) in assay [6]. In addition, the inhibitory constant (Ki) in assay [7] is 3.98 µM (active); in assay [8], 0.158 µM (active); in assay [9], > 7.94 µM (inactive); in assay [10], 0.00631 µM (active); on Aurora kinase B, 2 µM (active); in [11] it was > 0.398 µM (inactive). In addition, the Ki is 0.0501 µM (active) in assay [12], 0.0631 µM (active) in assay [13], 0.1 µM (active) in assay [14] and 0.00316 µM (active) in assay [15].
On to `OCc1cc(-c2ccc3[nH]ncc3c2)on1`, for which the Ki was 1 µM (active) in [1]; 25.1 µM (active) in assay [2]; 79.4 µM (active) in assay [3]; 63.1 µM (active) in assay [4]; 3.98 µM (active) in [5]; 12.6 µM (active) in assay [6]. Also, the Ki is 20 µM (active) in [7]; 2.51 µM (active) in assay [8]; 7.94 µM (active) in assay [9]; 15.8 µM (active) in [10]; 39.8 µM (active) in assay [16]; 20 µM (active) on Aurora kinase B. Besides, the Ki in assay [17] was 6.31 µM (active); in assay [11] it was 25.1 µM (active); in assay [12], 5.01 µM (active); in assay [13], 20 µM (active); in assay [14], > 100 µM (inactive); in assay [15], 0.398 µM (active). The values for the Ki in assay [18] and in assay [19] were 79.4 µM (active) and 20 µM (active), respectively.
On to `COC(C(=O)N1Cc2[nH]nc(NC(=O)c3ccc(N4CCN(C)CC4)cc3)c2C1)c1ccccc1` (stereo not given), for which the Ki was > 2.51 µM (inactive) in [4]; 0.794 µM (active) in [5]; > 2.51 µM (inactive) in [10]; > 2 µM (inactive) in assay [16]; > 3.98 µM (inactive) in assay [17]; 0.0398 µM (active) in assay [11]. For the same compound, the inhibition constant Ki in [14] was 0.158 µM (active); in assay [18] it was > 6.31 µM (inactive); in assay [19] it was 0.0316 µM (active).
With `CC(C)(O)c1cn(-c2ccc3[nH]ncc3c2)nn1`, the Ki in assay [1] is 6.31 µM (active); in assay [2], 31.6 µM (active); in assay [3], 79.4 µM (active); in [4], 25.1 µM (active); in [5], 2 µM (active); in assay [6], 20 µM (active). Further, the Ki in assay [7] is 39.8 µM (active); in assay [8], 12.6 µM (active); in assay [9] it was 39.8 µM (active); in assay [10] it was 20 µM (active); in assay [16], 63.1 µM (active); on Aurora kinase B, 31.6 µM (active). Also, the Ki in assay [17] was 15.8 µM (active); in assay [11], 79.4 µM (active); in [12], 10 µM (active); in assay [13], 39.8 µM (active); in [14] it was 39.8 µM (active); in assay [15], 5.01 µM (active). Besides, the Ki was 63.1 µM (active) in assay [18] and 15.8 µM (active) in [19].
